Measurements as given in ChEMBL document CHEMBL5729431, “Benzisoxazole sulfonamide derivatives” (2022).

Key:
[1] = biological target: T1, Histone acetyltransferase KAT8 (Homo sapiens, UniProt Q9H7Z6); assay: (§1) Kat8 Assay: TBDA. Compound preparation 1. Prepare 10 mM stock solutions in 100% DMSO from solid material 2. Serial dilute 10 mM, 1 mM or 0.1 mM compound stocks 3-fold in 100% DMSO for 11-point dose responseB. Reagent preparation 1. Prepare 1× assay buffer containing 10 mM Tris HCL pH 8.0, 2.5 mM NaCl, 0.5 mM EDTA, 0.005% BSG and 0.02% Tween-20 2. Dilute Histone peptide (CPC Scientific) and AcCoA (Sigma) together in assay buffer to 2×. 3. Dilute KAT enzyme in assay buffer to 2×.C. Enzyme reaction 1. Final reaction conditions for each KAT assay in a 20 ul assay reaction volume: KAT8 15 nM, 1 uM AcCoA, 2 uM H3 1-21 peptide, 45-minute reaction 2. Add 0.5 ul of diluted compound to the assay plate (384-well V-bottom polypropylene plates) or 0.5 ul of DMSO for control wells. 3. Add 10 ul of 2× Histone peptide/2×AcCoA mix to the assay plate. 4. Add 10 ul of 2× enzyme to the assay plate. 5. Stop the reaction after the indicated time with the addition of 2 ul of 5% formic acid 6. Each reaction was analyzed using self-assembled monolayer desorption/ionization time-of-flight mass spectrometry (Mrksich, Milan (2008) Mass Spectrometry of Self-Assembled Monolayers: A New Tool for Molecular Surface Science ACS Nano 2008 2 (1), 7-18; SAMDI Tech, Inc. (Chicago, Ill.)). 7. […]
T1 sequence (Q9H7Z6 whole entry): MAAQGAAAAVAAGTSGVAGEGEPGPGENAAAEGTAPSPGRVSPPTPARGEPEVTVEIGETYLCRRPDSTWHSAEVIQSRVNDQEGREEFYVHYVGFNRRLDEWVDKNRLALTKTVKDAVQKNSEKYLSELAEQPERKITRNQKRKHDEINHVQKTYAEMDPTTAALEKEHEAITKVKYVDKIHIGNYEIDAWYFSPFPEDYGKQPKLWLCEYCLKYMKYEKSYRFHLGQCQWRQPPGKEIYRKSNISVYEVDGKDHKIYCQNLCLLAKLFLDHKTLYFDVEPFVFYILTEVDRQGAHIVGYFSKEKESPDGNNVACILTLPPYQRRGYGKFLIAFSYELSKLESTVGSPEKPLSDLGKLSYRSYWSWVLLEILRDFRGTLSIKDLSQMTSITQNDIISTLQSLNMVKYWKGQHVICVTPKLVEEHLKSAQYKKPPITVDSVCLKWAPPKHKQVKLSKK

[2] = biological target: Histone acetyltransferase KAT5 (Homo sapiens, UniProt Q92993); assay: as §1, with “Kat5” for “Kat8”, “A.” for “TBDA.”, “KAT5 25” for “KAT8 15”, “H4” for “H3”, “30-minute” for “45-minute”
[3] = biological target: Histone acetyltransferase KAT7 (Homo sapiens, UniProt O95251); assay: as §1, with “Kat7” for “Kat8”, “A.” for “TBDA.”, “KAT7 12.5” for “KAT8 15”
[4] = biological target: Histone acetyltransferase KAT6B (Homo sapiens, UniProt Q8WYB5); assay: as §1, with “Kat6B Assay 1: A.” for “Kat8 Assay: TBDA.”, “KAT6B 25” for “KAT8 15”, “60-minute” for “45-minute”
[5] = biological target: Histone acetyltransferase KAT6A (Homo sapiens, UniProt Q92794); assay: as §1, with “Kat6A Assay 1: A.” for “Kat8 Assay: TBDA.”, “ii. KAT6A” for “KAT8”
Sequence of Histone acetyltransferase KAT6A (Q92794 whole entry): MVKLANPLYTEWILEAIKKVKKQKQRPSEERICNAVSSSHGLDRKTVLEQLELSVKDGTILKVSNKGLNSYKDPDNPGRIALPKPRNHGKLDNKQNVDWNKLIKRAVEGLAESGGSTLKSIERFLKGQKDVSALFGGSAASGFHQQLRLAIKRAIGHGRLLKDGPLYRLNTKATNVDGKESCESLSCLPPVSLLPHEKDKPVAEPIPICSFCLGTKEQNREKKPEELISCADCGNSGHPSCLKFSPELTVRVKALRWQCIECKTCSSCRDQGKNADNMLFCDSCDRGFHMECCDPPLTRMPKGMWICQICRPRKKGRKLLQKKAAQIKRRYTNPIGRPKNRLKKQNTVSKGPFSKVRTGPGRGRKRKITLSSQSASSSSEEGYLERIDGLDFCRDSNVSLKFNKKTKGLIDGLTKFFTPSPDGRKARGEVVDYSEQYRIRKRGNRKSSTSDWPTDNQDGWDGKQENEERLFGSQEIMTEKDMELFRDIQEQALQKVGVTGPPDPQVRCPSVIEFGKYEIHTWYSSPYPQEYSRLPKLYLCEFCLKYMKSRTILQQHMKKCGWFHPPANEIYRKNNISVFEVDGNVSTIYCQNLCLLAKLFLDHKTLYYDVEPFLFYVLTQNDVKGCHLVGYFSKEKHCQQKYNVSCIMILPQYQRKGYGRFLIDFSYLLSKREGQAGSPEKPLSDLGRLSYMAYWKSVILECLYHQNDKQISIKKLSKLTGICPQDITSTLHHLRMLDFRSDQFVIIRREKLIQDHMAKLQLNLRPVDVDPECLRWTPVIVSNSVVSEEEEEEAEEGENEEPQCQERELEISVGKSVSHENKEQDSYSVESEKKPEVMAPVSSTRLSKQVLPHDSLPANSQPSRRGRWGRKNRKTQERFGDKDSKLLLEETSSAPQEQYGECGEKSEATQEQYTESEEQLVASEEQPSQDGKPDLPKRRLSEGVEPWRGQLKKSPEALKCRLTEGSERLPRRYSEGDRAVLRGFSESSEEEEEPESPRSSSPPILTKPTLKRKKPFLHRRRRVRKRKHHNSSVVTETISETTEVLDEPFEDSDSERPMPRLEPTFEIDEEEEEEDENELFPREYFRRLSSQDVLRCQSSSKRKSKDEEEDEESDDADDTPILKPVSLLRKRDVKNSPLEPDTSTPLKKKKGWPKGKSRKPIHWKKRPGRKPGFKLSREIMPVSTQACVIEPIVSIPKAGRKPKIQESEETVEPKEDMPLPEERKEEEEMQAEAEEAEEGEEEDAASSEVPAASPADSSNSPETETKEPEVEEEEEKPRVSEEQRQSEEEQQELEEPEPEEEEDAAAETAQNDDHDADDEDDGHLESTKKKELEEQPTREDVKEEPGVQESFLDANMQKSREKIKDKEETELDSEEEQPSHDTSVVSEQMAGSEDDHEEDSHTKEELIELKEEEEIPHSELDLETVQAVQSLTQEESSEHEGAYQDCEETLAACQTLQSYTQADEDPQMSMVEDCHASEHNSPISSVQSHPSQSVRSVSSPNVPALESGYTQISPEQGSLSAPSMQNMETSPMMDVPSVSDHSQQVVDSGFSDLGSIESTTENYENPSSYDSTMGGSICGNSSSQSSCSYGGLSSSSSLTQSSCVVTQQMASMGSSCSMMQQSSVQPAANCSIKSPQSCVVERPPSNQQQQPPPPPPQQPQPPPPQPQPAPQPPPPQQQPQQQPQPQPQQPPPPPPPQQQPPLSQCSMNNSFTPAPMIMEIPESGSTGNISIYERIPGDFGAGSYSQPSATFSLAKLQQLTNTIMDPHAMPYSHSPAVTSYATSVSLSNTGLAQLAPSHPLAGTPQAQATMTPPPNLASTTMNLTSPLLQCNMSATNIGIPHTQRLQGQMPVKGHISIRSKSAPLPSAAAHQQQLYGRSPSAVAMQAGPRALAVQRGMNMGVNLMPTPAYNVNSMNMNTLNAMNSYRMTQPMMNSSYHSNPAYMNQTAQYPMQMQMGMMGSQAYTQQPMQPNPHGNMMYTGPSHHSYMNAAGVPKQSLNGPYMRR

Sequence of Histone acetyltransferase KAT6B (Q8WYB5 whole entry): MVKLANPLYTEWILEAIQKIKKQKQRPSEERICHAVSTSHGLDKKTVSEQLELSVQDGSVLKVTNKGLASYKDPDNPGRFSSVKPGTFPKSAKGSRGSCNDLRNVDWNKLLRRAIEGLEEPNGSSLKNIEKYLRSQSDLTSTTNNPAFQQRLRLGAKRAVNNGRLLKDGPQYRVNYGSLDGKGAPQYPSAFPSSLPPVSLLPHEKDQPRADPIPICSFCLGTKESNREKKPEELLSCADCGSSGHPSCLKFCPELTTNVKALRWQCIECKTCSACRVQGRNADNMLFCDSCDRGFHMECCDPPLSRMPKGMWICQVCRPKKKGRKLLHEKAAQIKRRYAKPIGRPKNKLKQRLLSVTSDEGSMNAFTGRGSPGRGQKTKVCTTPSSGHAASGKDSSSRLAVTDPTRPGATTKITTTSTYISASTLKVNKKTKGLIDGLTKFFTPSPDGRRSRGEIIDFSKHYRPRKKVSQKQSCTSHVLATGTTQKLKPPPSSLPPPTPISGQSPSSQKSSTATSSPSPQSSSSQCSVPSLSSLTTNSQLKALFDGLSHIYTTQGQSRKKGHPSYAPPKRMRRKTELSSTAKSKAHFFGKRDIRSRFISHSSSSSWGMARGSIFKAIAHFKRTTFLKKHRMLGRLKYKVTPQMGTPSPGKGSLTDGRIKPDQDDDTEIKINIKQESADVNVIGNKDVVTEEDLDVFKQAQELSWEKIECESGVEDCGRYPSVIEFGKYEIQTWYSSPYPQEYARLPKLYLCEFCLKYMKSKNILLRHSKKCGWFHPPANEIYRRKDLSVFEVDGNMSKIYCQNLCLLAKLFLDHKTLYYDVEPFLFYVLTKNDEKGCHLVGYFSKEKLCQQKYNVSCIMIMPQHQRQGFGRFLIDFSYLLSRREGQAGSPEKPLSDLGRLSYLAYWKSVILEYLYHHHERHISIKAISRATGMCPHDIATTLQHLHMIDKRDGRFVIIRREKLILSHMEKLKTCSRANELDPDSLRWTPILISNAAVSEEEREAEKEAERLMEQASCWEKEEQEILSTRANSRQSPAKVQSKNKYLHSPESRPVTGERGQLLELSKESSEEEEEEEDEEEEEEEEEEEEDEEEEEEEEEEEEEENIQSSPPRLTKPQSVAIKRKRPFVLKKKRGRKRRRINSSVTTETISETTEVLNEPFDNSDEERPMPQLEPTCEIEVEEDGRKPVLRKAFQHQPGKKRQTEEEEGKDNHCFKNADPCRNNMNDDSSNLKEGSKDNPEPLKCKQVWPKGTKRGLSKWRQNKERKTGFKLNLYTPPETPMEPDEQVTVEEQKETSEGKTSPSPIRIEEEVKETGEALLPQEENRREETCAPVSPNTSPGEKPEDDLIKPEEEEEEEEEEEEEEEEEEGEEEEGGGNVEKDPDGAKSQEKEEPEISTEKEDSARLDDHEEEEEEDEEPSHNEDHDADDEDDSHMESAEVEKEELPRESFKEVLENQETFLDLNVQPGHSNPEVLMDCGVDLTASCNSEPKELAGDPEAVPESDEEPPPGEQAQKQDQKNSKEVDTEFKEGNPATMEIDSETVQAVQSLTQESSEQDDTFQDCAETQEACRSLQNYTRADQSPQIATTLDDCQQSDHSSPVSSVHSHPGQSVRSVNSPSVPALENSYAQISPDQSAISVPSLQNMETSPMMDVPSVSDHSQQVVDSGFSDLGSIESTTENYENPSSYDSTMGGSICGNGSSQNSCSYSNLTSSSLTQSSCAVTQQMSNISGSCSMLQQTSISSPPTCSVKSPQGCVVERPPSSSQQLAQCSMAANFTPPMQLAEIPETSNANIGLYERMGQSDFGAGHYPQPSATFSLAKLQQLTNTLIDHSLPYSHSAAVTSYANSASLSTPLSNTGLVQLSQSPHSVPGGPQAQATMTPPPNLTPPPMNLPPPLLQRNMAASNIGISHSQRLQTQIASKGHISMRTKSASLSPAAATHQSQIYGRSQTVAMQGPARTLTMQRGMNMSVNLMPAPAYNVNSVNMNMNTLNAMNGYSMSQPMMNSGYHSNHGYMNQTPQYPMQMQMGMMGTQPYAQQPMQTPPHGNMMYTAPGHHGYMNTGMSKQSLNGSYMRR
Sequence of Histone acetyltransferase KAT5 (Q92993 whole entry): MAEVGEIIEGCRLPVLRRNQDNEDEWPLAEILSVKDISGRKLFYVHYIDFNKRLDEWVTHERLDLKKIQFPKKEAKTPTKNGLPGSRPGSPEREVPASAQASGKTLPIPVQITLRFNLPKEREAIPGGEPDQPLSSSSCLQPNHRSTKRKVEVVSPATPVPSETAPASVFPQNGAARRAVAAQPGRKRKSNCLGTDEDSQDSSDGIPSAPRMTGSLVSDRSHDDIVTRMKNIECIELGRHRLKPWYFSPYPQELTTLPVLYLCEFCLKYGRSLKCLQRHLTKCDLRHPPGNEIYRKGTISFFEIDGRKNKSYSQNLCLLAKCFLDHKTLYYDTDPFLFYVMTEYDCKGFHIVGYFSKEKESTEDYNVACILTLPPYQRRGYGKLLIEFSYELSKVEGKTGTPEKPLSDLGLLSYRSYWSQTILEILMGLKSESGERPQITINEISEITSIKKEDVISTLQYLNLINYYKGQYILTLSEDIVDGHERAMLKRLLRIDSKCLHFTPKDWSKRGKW

**Q.** How did the Ki [1] turn out when `COc1cc(Cn2cccn2)cc2onc(NS(=O)(=O)c3ccccc3)c12` was run?
**A.** 20.6 µM

**Q.** What about the Ki [2] of the same molecule?
**A.** 5.98 µM

**Q.** What about the Ki [3] of the same molecule?
**A.** 0.9 µM

**Q.** And the Ki [4]?
**A.** 0.0608 µM

**Q.** What about the Ki [5] of the same molecule?
**A.** 0.0103 µM
